Results taken from PubChem BioAssay AID1845194 (Molecular Pharmacology Branch, DTP, NCI, 2023).
“And” between values parts separate entries of the source, which are not always exact repeats. Equal entries are not always repeated.

Tested on: 287954-098-R-J1 tumor spheroid viability
Assay: Anticancer human tumor 287954-098-R-J1 patient-derived Ewing sarcoma cell line growth inhibition
Conditions: spheroids with HUVEC and MSC; for viability, T/C: stronger effect = lower value
How it was run: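 Complex spheroids of malignant cells with endothelial cells and mesenchymal stem cells; agents alone or combined, from near clinical Cmax (or 10 microM if unknown) down in half-log steps, 0.25% DMSO final.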

[1] = curve of first compound, second compound 0.003 µM
[2] = second compound 0.003 µM, first compound 0.0949 µM
[3] = second compound 0.003 µM, first compound 0.3 µM
[4] = second compound 0.003 µM, first compound 0.949 µM
[5] = second compound 0.003 µM, first compound 3 µM
[6] = second compound 0.003 µM, first compound 9.49 µM
[7] = second compound 0.003 µM, first compound 30 µM
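Further: spheroids exposed to compound for 7 days before viability readout.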
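Wherever viability, T/C is given: luminescent signal taken as surrogate of viable cell content; 100% = DMSO vehicle control viability and lower means growth inhibition.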

O=C(c1cc(Cc2n[nH]c(=O)c3ccccc23)ccc1F)N1CCN(C(=O)C2CC2)CC1 + COc1cc2c(cc1O)CCNC21CSC2c3c(OC(C)=O)c(C)c4c(c3C(COC1=O)N1C(O)C3Cc5cc(C)c(OC)c(O)c5C(C21)N3C)OCO4
IC50 (curve of first compound, second compound 30 pM): 9.18 µM | IC50 (curve of first compound, second compound 94.9 pM): 10.5 µM | IC50 (curve of first compound, second compound 0.0003 µM): 1.46 µM | IC50 (curve of first compound, second compound 0.000949 µM): < 0.0949 µM | IC50 [1]: < 0.0949 µM | viability, T/C (second compound 30 pM, first compound 0.0949 µM): 112% | viability, T/C (second compound 30 pM, first compound 0.3 µM): 108% | viability, T/C (second compound 30 pM, first compound 0.949 µM): 99.5% | viability, T/C (second compound 30 pM, first compound 3 µM): 112% | viability, T/C (second compound 30 pM, first compound 9.49 µM): 48.3% | viability, T/C (second compound 30 pM, first compound 30 µM): 4.03% | viability, T/C (second compound 94.9 pM, first compound 0.0949 µM): 114% | viability, T/C (second compound 94.9 pM, first compound 0.3 µM): 114% | viability, T/C (second compound 94.9 pM, first compound 0.949 µM): 109% | viability, T/C (second compound 94.9 pM, first compound 3 µM): 109% | viability, T/C (second compound 94.9 pM, first compound 9.49 µM): 54.4% | viability, T/C (second compound 94.9 pM, first compound 30 µM): 2.51% | viability, T/C (second compound 0.0003 µM, first compound 0.0949 µM): 98.8% | viability, T/C (second compound 0.0003 µM, first compound 0.3 µM): 102% | viability, T/C (second compound 0.0003 µM, first compound 0.949 µM): 68% | viability, T/C (second compound 0.0003 µM, first compound 3 µM): 18.6% | viability, T/C (second compound 0.0003 µM, first compound 9.49 µM): 0.6% | viability, T/C (second compound 0.0003 µM, first compound 30 µM): 0.57% | viability, T/C (second compound 0.000949 µM, first compound 0.0949 µM): 0.38% | viability, T/C (second compound 0.000949 µM, first compound 0.3 µM): 0.39% | viability, T/C (second compound 0.000949 µM, first compound 0.949 µM): 0.26% | viability, T/C (second compound 0.000949 µM, first compound 3 µM): 0.18% | viability, T/C (second compound 0.000949 µM, first compound 9.49 µM): 0.07% | viability, T/C (second compound 0.000949 µM, first compound 30 µM): 0.23% | viability, T/C [2]: 0.32% | viability, T/C [3]: 0.31% | viability, T/C [4]: 0.3% | viability, T/C [5]: 0.29% | viability, T/C [6]: 0.28% | viability, T/C [7]: 0.35%

COc1cc2c(cc1O)CCNC21CSC2c3c(OC(C)=O)c(C)c4c(c3C(COC1=O)N1C(O)C3Cc5cc(C)c(OC)c(O)c5C(C21)N3C)OCO4 (stereo unspecified)
viability, T/C (compound 30 pM): 106% [middle of 10 runs] | viability, T/C (compound 94.9 pM): 107% [middle of 10 runs] | viability, T/C (compound 0.0003 µM): 105% [middle of 10 runs] | viability, T/C (compound 0.000949 µM): 0.29% [middle of 9 runs] | viability, T/C (compound 0.003 µM): 0.17% [middle of 8 runs] | IC50 (compound alone, run of 10/25/2019): 0.548 nM [middle of 9 runs]

CC(C)n1c(=O)n(C)c2cnc3cc(F)c(-c4ccc(OCCCN5CCCCC5)nc4)cc3c21
viability, T/C (compound 0.0316 µM): 110% (2×) and 102% | viability, T/C (compound 0.1 µM): 102% (2×) and 101% | viability, T/C (compound 0.316 µM): 110% and 98.5% and 105% | viability, T/C (compound 1 µM): 102% and 110% and 112% | viability, T/C (compound 3.16 µM): 108% and 107% (2×) | viability, T/C (compound 10 µM): 11% and 86.6% and 25.5% | IC50 (curve of compound): 6.24 µM and > 10 µM and 7.03 µM

COc1ccc([C@@H](O)c2cc(-c3ncnc4cc(N5CCOCC5)ccc34)c(F)cc2Cl)nn1
viability, T/C (compound 0.0316 µM): 96.1% and 101% and 92.6% | viability, T/C (compound 0.1 µM): 96% and 113% and 96.1% | viability, T/C (compound 0.316 µM): 97% and 107% and 92.6% | viability, T/C (compound 1 µM): 105% (2×) and 102% | viability, T/C (compound 3.16 µM): 109% and 98.1% and 100% | viability, T/C (compound 10 µM): 103% and 87.1% and 82.1% | IC50 (curve of compound): > 10 µM

O=C(c1cc(Cc2n[nH]c(=O)c3ccccc23)ccc1F)N1CCN(C(=O)C2CC2)CC1
viability, T/C (compound 0.0949 µM): 103% | viability, T/C (compound 0.3 µM): 91.4% and 92.4% and 106% | viability, T/C (compound 0.949 µM): 91.6% and 89.5% and 109% | viability, T/C (compound 3 µM): 90.2% and 93.9% and 108% | viability, T/C (compound 9.49 µM): 87.1% and 76.8% and 96.1% | IC50 (curve of compound): 21.4 µM and 14.9 µM and 20.2 µM

O=C(c1cc(Cc2n[nH]c(=O)c3ccccc23)ccc1F)N1CCN(C(=O)C2CC2)CC1 + CC[C@@]1(O)C(=O)OCc2c1cc1n(c2=O)Cc2cc3c(CN(C)C)c(O)ccc3nc2-1
IC50 [1]: 5.24 µM | IC50 (curve of first compound, second compound 0.00949 µM): 3.84 µM | IC50 (curve of first compound, second compound 0.03 µM): < 0.0949 µM | IC50 (curve of first compound, second compound 0.0949 µM): < 0.0949 µM | IC50 (curve of first compound, second compound 0.3 µM): < 0.0949 µM | viability, T/C [2]: 93.7% | viability, T/C [3]: 96.7% | viability, T/C [4]: 96.2% | viability, T/C [5]: 93.9% | viability, T/C [6]: 3.33% | viability, T/C [7]: 1.93% | viability, T/C (second compound 0.00949 µM, first compound 0.0949 µM): 92.9% | viability, T/C (second compound 0.00949 µM, first compound 0.3 µM): 95.3% | viability, T/C (second compound 0.00949 µM, first compound 0.949 µM): 82.9% | viability, T/C (second compound 0.00949 µM, first compound 3 µM): 63.2% | viability, T/C (second compound 0.00949 µM, first compound 9.49 µM): 1.84% | viability, T/C (second compound 0.00949 µM, first compound 30 µM): 1.78% | viability, T/C (second compound 0.03 µM, first compound 0.0949 µM): 2.21% | viability, T/C (second compound 0.03 µM, first compound 0.3 µM): 2.14% | viability, T/C (second compound 0.03 µM, first compound 0.949 µM): 2.31% | viability, T/C (second compound 0.03 µM, first compound 3 µM): 2.28% | viability, T/C (second compound 0.03 µM, first compound 9.49 µM): 1.82% | viability, T/C (second compound 0.03 µM, first compound 30 µM): 1.46% | viability, T/C (second compound 0.0949 µM, first compound 0.0949 µM): 2.17% | viability, T/C (second compound 0.0949 µM, first compound 0.3 µM): 1.78% | viability, T/C (second compound 0.0949 µM, first compound 0.949 µM): 1.87% | viability, T/C (second compound 0.0949 µM, first compound 3 µM): 1.93% | viability, T/C (second compound 0.0949 µM, first compound 9.49 µM): 1.76% | viability, T/C (second compound 0.0949 µM, first compound 30 µM): 1.56% | viability, T/C (second compound 0.3 µM, first compound 0.0949 µM): 1.94% | viability, T/C (second compound 0.3 µM, first compound 0.3 µM): 1.89% | viability, T/C (second compound 0.3 µM, first compound 0.949 µM): 1.84% | viability, T/C (second compound 0.3 µM, first compound 3 µM): 1.71% | viability, T/C (second compound 0.3 µM, first compound 9.49 µM): 1.55% | viability, T/C (second compound 0.3 µM, first compound 30 µM): 1.28%
